Assay results taken from publication PMC5078989, “Targeted inhibition of the COP9 signalosome for treatment of cancer” (Nature Communications, 2016).
pEC50: −log10 of the molar value.

System: panel of cancer cell lines
Experiment: Cell viability (CellTiter-Glo) dose-response across cancer cell line panel;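 further: after 72 h compound incubation with CellTiter-Glo ATP readout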
Format: cell-based, human
Details: Homo sapiens
From the text: Next, we explored the effect of CSN5 inhibition on the viability of cancer cells. To obtain a comprehensive picture, we generated dose–response curves with a CSN5 inhibitor across more than 500 cancer cell lines in a previously described standardized setting[47] (Supplementary Data 1).
A standardized CellTiter-Glo Assay (Promega #G7570) based on the quantification of ATP was applied according to the manufacturer's protocol to measure the amount of viable cells in culture. In brief, cells were seeded into 384-well plates at optimal density for each cell line. After 4 h, compounds were added at different concentrations in growth medium and incubated for another 72 h in a humidifying chamber at 37 °C and 5% CO2. […] EC50 values were calculated from the plot of percentage of inhibition versus inhibitor concentration using the nonlinear regression analysis software Origin 7.5SR6 (OriginLab Corp.).

pEC50 (MSTO-211H, MSTO-211H cells): 4.97
pEC50 (MV4-11, MV-4-11 cells): 5.17
pEC50 (Malme-3M, Malme-3M cells): 4.87
pEC50 (Mono-Mac-1, MONO-MAC-1 cells): 5.43
pEC50 (NALM-6, NALM-6 cells): 5.16
pEC50 (NB1, NB-1 cells): 4.93
pEC50 (NB-4, NB-4 cells): 5.05
pEC50 (NCI-H23, NCI-H23 cells): 4.62
pEC50 (NCI-H28, NCI-H28 cells): 4.82
pEC50 (NCI-H146, NCI-H146 cells): 4.93
pEC50 (NCI-H211, NCI-H211 cells): 4.69
pEC50 (NCI-H322, NCI-H322 cells): 4.89
pEC50 (NCI-H441, NCI-H441 cells): 4.61
pEC50 (NCI-H460, NCI-H460 cells): 4.99
pEC50 (NCI-H661, NCI-H661 cells): 4.70
pEC50 (NCI-H747, NCI-H747 cells): 4.97
pEC50 (NCI-H810, NCI-H810 cells): < 4.52
pEC50 (NCI-H838, NCI-H838 cells): < 4.52
pEC50 (NCI-H841, NCI-H841 cells): 4.96
pEC50 (NCI-H1048, NCI-H1048 cells): 4.80
pEC50 (NCI-H1155, NCI-H1155 cells): 5.09
pEC50 (NCI-H1299, NCI-H1299 cells): 5.07
pEC50 (NCI-H1339, NCI-H1339 cells): 4.95
pEC50 (NCI-H1341 cells): 4.99
pEC50 (NCI-H1355, NCI-H1355 cells): 4.92
pEC50 (NCI-H1373, NCI-H1373 cells): 4.89
pEC50 (NCI-H1437, NCI-H1437 cells): 4.93
pEC50 (NCI-H1568, NCI-H1568 cells): 4.95
pEC50 (NCI-H1581, NCI-H1581 cells): 5.11
pEC50 (NCI-H1650, NCI-H1650 cells): 4.90
pEC50 (NCI-H1666, NCI-H1666 cells): 4.89
pEC50 (NCI-H1693, NCI-H1693 cells): 4.83
pEC50 (NCI-H1703, NCI-H1703 cells): 5.19
pEC50 (NCI-H1755, NCI-H1755 cells): 4.89
pEC50 (NCI-H1975, NCI-H1975 cells): 4.95
pEC50 (NCI-H2023, NCI-H2023 cells): 4.91
pEC50 (NCI-H2030, NCI-H2030 cells): 4.52
pEC50 (NCI-H2073, NCI-H2073 cells): 4.69
pEC50 (NCI-H2087, NCI-H2087 cells): 4.89
pEC50 (NCI-H2110, NCI-H2110 cells): 4.93
pEC50 (NCI-H2122, NCI-H2122 cells): 4.99
pEC50 (NCI-H2170, NCI-H2170 cells): 4.98
pEC50 (NCI-H2171, NCI-H2171 cells): 4.76
pEC50 (NCI-H2228, NCI-H2228 cells): < 4.52
pEC50 (NCI-H2286, NCI-H2286 cells): 4.98
pEC50 (NCI-H2444, NCI-H2444 cells): 4.94
pEC50 (NCI-H2452, NCI-H2452 cells): < 4.52
pEC50 (NCI-H3255, NCI-H3255 cells): 4.88
pEC50 (NO36 cells): 4.88
pEC50 (NOMO-1, NOMO-1 cells): 5.14
pEC50 (NUGC-3, NUGC-3 cells): 5.02
pEC50 (OCI-AML-3, OCI-AML3 cells): 5.15
pEC50 (OCI-AML-5, OCI-AML5 cells): 5.02
pEC50 (OCI-Ly3, OCI-LY3 cells): 5.27
pEC50 (OCI-M1, OCI-M1 cells): 5.14
pEC50 (ONCO-DG-1, ONCO-DG-1 cells): 5.13
pEC50 (OUMS-23, OUMS-23 cells): 4.91
pEC50 (OV56, OV56 cells): 4.90
pEC50 (OVCAR-4, OVCAR-4 cells): 5.00
pEC50 (OVISE cells): 4.92
pEC50 (P3HR-1, P3HR-1 cells): 5.11
pEC50 (P12-Ichikawa, P12-ICHIKAWA cells): 5.15
pEC50 (P31-FUJ, P31/FUJ cells): 4.87
pEC50 (PANC-1, PANC-1 cells): 4.91
pEC50 (PANC-03-27, Panc 03.27 cells): 4.66
pEC50 (PC-3, PC-3 cells): 4.97
pEC50 (PC-14, PC-14 cells): 4.90
pEC50 (PE/CA-PJ49 cells): 4.90
pEC50 (PF-382, PF-382 cells): 5.30
pEC50 (PK-1, PK-1 cells): 4.80
pEC50 (PK-45H cells): 5.02
pEC50 (PK-59, PK-59 cells): 4.94
pEC50 (PL-21, PL-21 cells): 5.19
pEC50 (PLC-PRF-5, PLC/PRF/5 cells): 4.70
pEC50 (PSN1, PSN1 cells): 4.96
pEC50 (PaTu 8988s, PA-TU-8988S cells): 4.58
pEC50 (PaTu 8988t, PA-TU-8988T cells): 4.97
pEC50 (Panc 02.03, Panc 02.03 cells): < 4.52
pEC50 (Panc 04.03, Panc 04.03 cells): 4.88
pEC50 (QGP-1, QGP-1 cells): 4.93
pEC50 (RCM-1, RCM-1 cells): 4.87
pEC50 (RD, RD cells): 5.01
pEC50 (RERF-LC-AI cells): 4.93
pEC50 (RERF-LC-MS cells): 4.62
pEC50 (RKN cells): 4.54
pEC50 (RKO, RKO cells): 4.75
pEC50 (RPMI 8402, RPMI-8402 cells): 5.13
pEC50 (RPMI-7951, RPMI-7951 cells): 4.94
pEC50 (RT-112, RT-112 cells): 4.95
pEC50 (Rh41, RH-41 cells): 5.35
pEC50 (SCC-25, SCC-25 cells): 4.94
pEC50 (SCaBER, SCaBER cells): < 4.52
pEC50 (SEM cells): 5.02
pEC50 (SF-268, SF-268 cells): 4.89
pEC50 (SH-4, SH-4 cells): 4.96
pEC50 (SH-10-TC, SH-10-TC cells): 4.97
pEC50 (SH-SY5Y, SH-SY5Y cells): 5.09
pEC50 (SJRH30, SJRH30 cells): 4.81
pEC50 (SK-CO-1, SK-CO-1 cells): 4.97
pEC50 (SK-ES1, SK-ES-1 cells): 4.88
pEC50 (SK-HEP1, SK-HEP-1 cells): < 4.52
pEC50 (SK-LU-1, SK-LU-1 cells): 5.07
pEC50 (SK-MEL3, SK-MEL-3 cells): 4.99
pEC50 (SK-MEL-2, SK-MEL-2 cells): 4.83
pEC50 (SK-MEL-5, SK-MEL-5 cells): 4.97
pEC50 (SK-MEL-28, SK-MEL-28 cells): 4.88
pEC50 (SK-MEL-30, SK-MEL-30 cells): 4.92
pEC50 (SK-MEL-31 cells): 4.62
pEC50 (SK-MES-1, SK-MES-1 cells): 4.55
pEC50 (SK-N-SH, SK-N-SH cells): 4.57
pEC50 (SKM-1, SKM-1 cells): 4.87
pEC50 (SKNBE2, SK-N-BE(2) cells): 4.94
pEC50 (SNB-19, SNB-19 cells): 4.60
pEC50 (SNG-M cells): 4.68
pEC50 (SNU668, SNU-668 cells): 4.94
pEC50 (SNU878, SNU-878 cells): 5.13
pEC50 (SNU-8 cells): < 4.52
pEC50 (SNU-16, SNU-16 cells): 5.05
pEC50 (SNU-61 cells): < 4.52
pEC50 (SNU-175 cells): 4.77
pEC50 (SNU-213 cells): 4.87
pEC50 (SNU-324 cells): 4.89
pEC50 (SNU-349 cells): < 4.52
pEC50 (SNU-387, SNU-387 cells): 5.00
pEC50 (SNU-398, SNU-398 cells): 5.17
pEC50 (SNU-410 cells): 4.65
pEC50 (SNU-423, SNU-423 cells): 4.90
pEC50 (SNU-449, SNU-449 cells): 4.59
pEC50 (SNU-475, SNU-475 cells): < 4.52
SMILES: COCc1ccccc1NCc1ccc([C@@H]2[C@H](O)CCCc3cncn32)c(-c2ccccc2Cl)c1 [CSN5i-2e, (5R,6R)-5-(2′-chloro-5-(((2-(methoxymethyl)phenyl)amino)methyl)-[1,1′-biphenyl]-2-yl)-6,7,8,9-tetrahydro-5H-imidazo[1,5-a]azepin-6-ol]
